Reference: paper PMC6099540 (2018)

system: c-KIT 1 (DNA, G4) AGGGAGGGCGCTGGGAGGAGGG; assay: CD melting at 265 nm; settings: 10 mM KCl, 90 mM LiCl; 10 mM Tris-HCl, pH 7.2; 2 µM DNA, 3 eq ligand; 1 °C/min

ΔTm [°C] | SMILES
5.4 | CC[n+]1c(/C=C/c2ccc3c(c2)c2ccccc2n3CCCCn2cncn2)sc2ccccc21
8.4 | CC[n+]1c(/C=C/c2ccc3c(c2)c2ccccc2n3CCCCn2ccnc2)sc2ccccc21
5.9 | CCn1c2ccccc2c2cc(/C=C/c3sc4ccccc4[n+]3CC)ccc21
